Our source for the EC50 values is BindingDB's records for doi:10.1021/ml5002757 (Therachem Research Medilab (India), 2014).

This assay addresses Free fatty acid receptor 1 (Homo sapiens, UniProt O14842). The experiment in a line: Modulation activity at human GPR40 expressed in HEK293 cells by IP-1 detection based HTRF assay. On the technique in general: TR-FRET usually uses a lanthanide donor and a delayed reading to cut background.

As usually defined, the EC50 is the concentration giving half of the maximal effect. Read a low EC50 as higher potency in that assay.

Sequence of Free fatty acid receptor 1 (O14842 whole entry): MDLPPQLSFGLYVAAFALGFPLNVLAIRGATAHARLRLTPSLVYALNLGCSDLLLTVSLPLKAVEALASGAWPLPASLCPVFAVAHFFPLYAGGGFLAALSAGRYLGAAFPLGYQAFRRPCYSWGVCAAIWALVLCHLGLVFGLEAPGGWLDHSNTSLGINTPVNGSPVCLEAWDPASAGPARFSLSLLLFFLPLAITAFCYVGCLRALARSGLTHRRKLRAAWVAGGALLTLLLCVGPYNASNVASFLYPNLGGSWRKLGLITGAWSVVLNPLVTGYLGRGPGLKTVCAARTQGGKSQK

The compound `Cc1ccccc1Oc1ccc(N2N=C(C#N)CC2CC(=O)O)cc1` (stereo unspecified) had an EC50 of 0.56 µM.
